Tests used:
Format in all cases: biochemical
[1] = target: T1, JAK2 kinase (Homo sapiens, UniProt O60674); assay: IC50 evaluation assay on JAK2 kinase inhibition (Caliper); conditions: adenosine triphosphate at Km; 1 hour at 28° C.; average of two tests; read-out: IC50 (nM) inhibiting JAK 2 kinase
T1 construct: purchased Carna 08-045
Procedure: (§1) 1. The compound was dissolved in 100% DMSO, diluted into solutions with appropriate concentration gradients with water according to experimental requirement, and added to a 384-well plate.
(§2) 2. JAK2 kinase (Carna, Cat. No. 08-045, Lot. No. 07CBS-1927) and JAK3 kinase (Carna, Cat. No. 08-046, Lot. No. 08CBS-0371) were diluted to the optimum concentration with the following buffer solution: 50 mM HEPES, pH 7.5, 0.0015% Brij-35, 2 mM DTT. JAK1 kinase (Carna, Cat. No. 08-144, Lot. No. 11CBS-0144D) was diluted to the optimum concentration with the following buffer solution: 25 mM HEPES pH 7.5, 0.01% Brij-35, 2 mM DTT, 0.01M Triton. Transfer to the 384-well plate and incubated with the compound for a period of time.
(§3) 3. […] The substrate of JAK1 was diluted to the optimum concentration with the following buffer: 25 mM HEPES, pH 7.5, 0.01% Brij-35, 10 mM MgCl2, 0.01M Triton, adenosine triphosphate at Km. Add to the 384-well plate to initiate there action and react for 1 hour at 28° C.
(§4) 4. 1 Eq. of sulfuric acid solution was added to terminate the reaction, the conversion rate was read with Caliper Reader. The inhibition rate was calculated as the average of two tests.

[2] = target: T2, JAK3 kinase (Homo sapiens, UniProt P52333); assay: IC50 evaluation assay on JAK3 kinase inhibition (Caliper); conditions: adenosine triphosphate at Km; 1 hour at 28° C.; average of two tests; read-out: IC50 (nM) inhibiting JAK 3 kinase
T2 construct: purchased Carna 08-046
T2 sequence (P52333 1-1124): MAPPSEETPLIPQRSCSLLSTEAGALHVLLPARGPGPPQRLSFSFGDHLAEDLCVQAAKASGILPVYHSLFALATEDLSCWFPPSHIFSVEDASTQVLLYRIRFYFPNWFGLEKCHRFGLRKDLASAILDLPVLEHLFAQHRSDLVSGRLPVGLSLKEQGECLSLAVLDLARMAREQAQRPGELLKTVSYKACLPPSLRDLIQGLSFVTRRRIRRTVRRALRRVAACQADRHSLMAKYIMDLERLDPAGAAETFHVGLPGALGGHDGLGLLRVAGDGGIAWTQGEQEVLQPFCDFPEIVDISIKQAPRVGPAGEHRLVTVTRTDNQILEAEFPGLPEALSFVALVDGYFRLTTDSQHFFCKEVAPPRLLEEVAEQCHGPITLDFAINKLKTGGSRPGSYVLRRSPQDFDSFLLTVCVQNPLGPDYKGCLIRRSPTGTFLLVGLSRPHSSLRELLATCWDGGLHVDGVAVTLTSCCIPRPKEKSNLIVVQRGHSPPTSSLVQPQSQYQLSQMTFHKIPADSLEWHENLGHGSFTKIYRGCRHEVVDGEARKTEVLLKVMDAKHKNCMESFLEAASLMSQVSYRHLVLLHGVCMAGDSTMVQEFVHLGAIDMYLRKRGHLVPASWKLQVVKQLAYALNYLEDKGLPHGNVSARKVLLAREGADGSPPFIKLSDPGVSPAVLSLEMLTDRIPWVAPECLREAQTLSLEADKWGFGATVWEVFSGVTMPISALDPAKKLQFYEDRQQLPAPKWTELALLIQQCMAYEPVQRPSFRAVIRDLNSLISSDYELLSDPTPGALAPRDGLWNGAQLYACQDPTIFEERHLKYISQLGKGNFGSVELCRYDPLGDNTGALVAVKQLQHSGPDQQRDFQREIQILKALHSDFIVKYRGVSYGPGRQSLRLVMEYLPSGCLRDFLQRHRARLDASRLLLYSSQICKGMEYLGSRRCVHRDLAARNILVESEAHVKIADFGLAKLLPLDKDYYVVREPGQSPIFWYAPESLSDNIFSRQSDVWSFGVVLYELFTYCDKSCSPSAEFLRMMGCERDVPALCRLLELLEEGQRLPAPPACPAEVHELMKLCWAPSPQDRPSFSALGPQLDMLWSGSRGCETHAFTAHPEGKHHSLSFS
Procedure: as §1, §2, §3, §4

[3] = target: T3, JAK1 kinase (Homo sapiens, UniProt P23458); assay: IC50 evaluation assay on JAK1 kinase inhibition (Caliper); conditions: adenosine triphosphate at Km; 1 hour at 28° C.; average of two tests; read-out: IC50 (nM) inhibiting JAK 1 kinase
T3 construct: purchased Carna 08-144
Procedure: as §1, §2, §3, §4

T1 sequence (O60674 whole entry): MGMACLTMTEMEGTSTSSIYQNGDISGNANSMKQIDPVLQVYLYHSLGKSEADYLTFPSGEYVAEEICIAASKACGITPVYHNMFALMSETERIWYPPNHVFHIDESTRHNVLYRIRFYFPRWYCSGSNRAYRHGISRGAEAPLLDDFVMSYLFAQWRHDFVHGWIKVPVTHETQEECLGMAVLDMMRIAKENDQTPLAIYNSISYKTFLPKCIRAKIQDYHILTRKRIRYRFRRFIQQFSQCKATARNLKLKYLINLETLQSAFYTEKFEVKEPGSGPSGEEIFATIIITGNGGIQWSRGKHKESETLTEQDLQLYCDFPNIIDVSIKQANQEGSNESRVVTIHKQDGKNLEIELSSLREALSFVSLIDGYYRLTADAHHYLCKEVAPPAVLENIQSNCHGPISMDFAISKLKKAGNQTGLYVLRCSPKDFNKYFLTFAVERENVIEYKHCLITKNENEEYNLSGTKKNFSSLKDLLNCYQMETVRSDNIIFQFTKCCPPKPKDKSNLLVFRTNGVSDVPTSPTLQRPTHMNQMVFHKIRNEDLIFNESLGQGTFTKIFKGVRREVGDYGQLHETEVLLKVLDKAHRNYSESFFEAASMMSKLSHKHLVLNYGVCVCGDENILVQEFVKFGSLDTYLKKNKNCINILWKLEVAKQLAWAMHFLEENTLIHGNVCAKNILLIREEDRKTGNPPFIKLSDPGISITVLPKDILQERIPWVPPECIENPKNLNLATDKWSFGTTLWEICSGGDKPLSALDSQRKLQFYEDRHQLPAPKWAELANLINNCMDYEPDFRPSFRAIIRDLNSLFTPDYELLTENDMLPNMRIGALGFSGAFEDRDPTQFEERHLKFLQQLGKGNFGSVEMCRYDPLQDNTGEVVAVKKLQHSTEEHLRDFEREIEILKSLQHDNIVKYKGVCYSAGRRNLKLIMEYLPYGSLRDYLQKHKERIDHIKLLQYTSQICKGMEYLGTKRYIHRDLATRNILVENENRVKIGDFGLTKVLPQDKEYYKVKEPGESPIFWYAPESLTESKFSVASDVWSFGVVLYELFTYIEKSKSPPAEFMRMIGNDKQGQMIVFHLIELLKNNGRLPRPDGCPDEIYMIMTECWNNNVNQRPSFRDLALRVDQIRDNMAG
T3 sequence (P23458 whole entry): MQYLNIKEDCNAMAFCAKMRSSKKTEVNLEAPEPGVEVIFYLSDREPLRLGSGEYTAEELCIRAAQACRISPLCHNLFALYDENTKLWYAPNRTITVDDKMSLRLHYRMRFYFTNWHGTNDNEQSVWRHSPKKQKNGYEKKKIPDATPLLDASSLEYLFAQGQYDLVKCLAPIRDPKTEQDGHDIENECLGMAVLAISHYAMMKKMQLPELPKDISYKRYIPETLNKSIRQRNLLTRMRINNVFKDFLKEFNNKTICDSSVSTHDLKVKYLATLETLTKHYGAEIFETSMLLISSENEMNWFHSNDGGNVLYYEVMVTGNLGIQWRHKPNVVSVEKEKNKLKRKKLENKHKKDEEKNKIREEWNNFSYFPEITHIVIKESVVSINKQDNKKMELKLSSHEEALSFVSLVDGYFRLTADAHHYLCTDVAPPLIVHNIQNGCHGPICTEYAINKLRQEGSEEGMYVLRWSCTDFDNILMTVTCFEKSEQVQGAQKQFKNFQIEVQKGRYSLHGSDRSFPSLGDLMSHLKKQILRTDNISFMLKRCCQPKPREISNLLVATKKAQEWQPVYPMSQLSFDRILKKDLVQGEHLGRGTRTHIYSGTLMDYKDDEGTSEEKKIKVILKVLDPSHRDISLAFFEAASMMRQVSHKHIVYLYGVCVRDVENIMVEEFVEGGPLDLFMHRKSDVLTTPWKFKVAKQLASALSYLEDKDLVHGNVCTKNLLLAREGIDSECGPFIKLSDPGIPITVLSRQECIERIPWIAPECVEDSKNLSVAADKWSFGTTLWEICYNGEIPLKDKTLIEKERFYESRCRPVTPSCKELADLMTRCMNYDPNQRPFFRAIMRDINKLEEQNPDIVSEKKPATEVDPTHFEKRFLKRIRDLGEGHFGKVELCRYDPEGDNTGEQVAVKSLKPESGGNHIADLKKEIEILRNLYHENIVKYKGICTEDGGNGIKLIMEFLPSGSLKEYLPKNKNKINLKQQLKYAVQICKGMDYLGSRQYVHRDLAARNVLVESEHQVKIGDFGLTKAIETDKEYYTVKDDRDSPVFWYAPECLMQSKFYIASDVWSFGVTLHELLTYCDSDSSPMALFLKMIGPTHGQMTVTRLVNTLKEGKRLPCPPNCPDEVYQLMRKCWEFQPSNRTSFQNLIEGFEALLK

Row | Structure (SMILES) | IC50 [1] | IC50 [2] | IC50 [3]
1 | COc1cc(F)ccc1-c1c(C)sc2cnc(Nc3cnn(CCCN4CCCC4)c3)nc12 [Compound 27, N-[7-(4-fluoro-2-methoxyphenyl)-6-methylthieno[3,2-d]pyrimidinyl-2-yl]-1-[3-(1-pyrrolidinyl)propyl]-1H-pyrazol-4-amine] | 2.3 nM | 1.6 nM | 10 nM
2 | COc1ccccc1-c1cccc2cnc(Nc3cnn(C4CCNCC4)c3)nc12 [Compound 45, 8-(2-Methoxyphenyl)-N-[1-(4-piperidinyl)-1H-pyrazol-4-yl]quinazolin-2-amine] | 5.8 nM | 1 nM | 2.4 nM
3 | Cc1sc2cnc(Nc3cnn(C)c3)nc2c1-c1ccccc1N(C)C [Compound 41, N-{7-[2-(dimethylamino)phenyl]-6-methylthieno[3,2-d]pyrimidin-2-yl}-1-methyl-1H-pyrazol-4-amine] | 36 nM | 33.7 nM | 41 nM
4 | Cc1sc2cnc(Nc3cnn(C)c3)nc2c1-c1cccc2c1OCC2 [Compound 2, N-[7-(2,3-dihydro-1-benzofuran-7-yl)-6-methylthieno[3,2-d]pyrimidinyl-2-yl]-1-methyl-1H-pyrazol-4-amine] | 1.8 nM | 0.99 nM | 14 nM
5 | COc1cc(OCCCN2CCOCC2)ccc1-c1c(C)sc2cnc(Nc3cnn(C)c3)nc12 [Compound 17, N-(7-{2-methoxy-4-[3-(4-morpholinyl)propoxy]phenyl}-6-methylthieno[3,2-d]pyrimidinyl-2-yl)-1-methyl-1H-pyrazol-4-amine] | 2.3 nM | 1.3 nM | 16 nM
6 | c1cc2c(c(-c3cccc4cnc(Nc5cnn(C6CCNCC6)c5)nc34)c1)OCC2 [Compound 44, 8-(2,3-Dihydro-1-benzofuran-7-yl)-N-[1-(4-piperidin)-1H-pyrazol-4-yl]quinazolin-2-amine] | 7.7 nM | 16 nM | 54 nM
7 | COc1cc(S(C)(=O)=O)ccc1-c1cccc2cnc(Nc3cnn(C4CCNCC4)c3)nc12 [Compound 49, 8-(4-methylsulfonyl-2-methoxyphenyl)-N-[1-(4-piperidin)-1H-pyrazol-4-yl]quinazolin-2-amine] | 2.1 nM | 9.8 nM | 58 nM
8 | CN(c1ccccc1-c1csc2cnc(Nc3cnn(C)c3)nc12)S(C)(=O)=O [Compound 28, N-methyl-N-(2-{2-[(1-methyl-1H-pyrazol-4-yl)amino]thieno[3,2-d]pyrimidinyl-7-yl}phenyl)methanesulfonamide] | 23 nM | 1.3 nM | 75.8 nM
9 | COc1cc(O[C@H]2CCOC2)ccc1-c1c(C)sc2cnc(Nc3cnn(C)c3)nc12 [Compound 15, N-(7-{2-methoxy-4-[(3S)-3-tetrahydrofuranoxy]phenyl}-6-methylthieno[3,2-d]pyrimidinyl-2-yl]-1-methyl-1H-pyrazol-4-amine] | 1.8 nM | 2.1 nM | 13 nM
10 | COc1cc(O[C@@H]2CCOC2)ccc1-c1c(C)sc2cnc(Nc3cnn(C)c3)nc12 [Compound 12, N-(7-{2-methoxy-4-[(3R)-3-tetrahydrofuranoxyl]phenyl]-6-methylthieno[3,2-d]pyrimidinyl-2-yl]-1-methyl-1H-pyrazol-4-amine] | 1.8 nM | 1.4 nM | 12 nM
11 | COc1ccccc1-c1cncc2cnc(Nc3cnn(C4CCNCC4)c3)nc12 [Compound 47, N-[8-(2-methoxyphenyl)pyridino[4,3-d]pyrimidin-2-yl]-1-(4-piperidin)-1H-pyrazol-4-amine] | 9.6 nM | 3 nM | 58 nM

The next compounds have a lower IC50 [1] than those just listed; values first:

Row | IC50 [1] | IC50 [2] | IC50 [3] | Structure (SMILES)
12 | 1.7 nM | 1 nM | 7.2 nM | COc1ncccc1-c1c(C)sc2cnc(Nc3cnn(C)c3)nc12 [Compound 43]
13 | 1.6 nM | 0.71 nM | 18 nM | Cc1sc2cnc(Nc3cnn(C4CCOCC4)c3)nc2c1-c1cccc2c1OCC2 [Compound 39, N-[7-(2,3-dihydro-1-benzofuran-7-yl)-6-methylthieno[3,2-d]pyrimidin-2-yl]-1-(tetrahydropyran-4-yl)-1H-pyrazol-4-amine]
14 | 1.4 nM | 1.4 nM | 12 nM | COc1cc(Cl)ccc1-c1c(C)sc2cnc(Nc3cnn(C)c3)nc12 [Compound 6, N-[7-(4-chloro-2-dimethoxyphenyl)-6-methylthieno[3,2-d]pyrimidinyl-2-yl]-1-methyl-1H-pyrazol-4-amine]
15 | 1.3 nM | 3.1 nM | 16 nM | COc1cc(S(C)(=O)=O)ccc1-c1c(C)sc2cnc(Nc3cnn(C)c3)nc12 [Compound 4]
16 | 1.2 nM | 1.8 nM | 13 nM | COc1ccc(-c2c(C)sc3cnc(Nc4cnn(C)c4)nc23)c(OC)c1 [Compound 7, N-[7-(2,4-dimethoxyphenyl)-6-methylthieno[3,2-d]pyrimidinyl-2-yl]-1-methyl-1H-pyrazol-4-amine]
17 | 0.94 nM | 0.73 nM | 5.1 nM | COc1cc(OCCCS(C)(=O)=O)ccc1-c1c(C)sc2cnc(Nc3cnn(C)c3)nc12 [Compound 11, N-{7-[4-(3-methylsulfonylpropoxy)-2-methoxyphenyl]-6-methylthieno[3,2-d]pyrimidinyl-2-yl]-1-methyl-1H-pyrazol-4-amine]
18 | 0.8 nM | 15.9 nM | 30.4 nM | Cc1sc2cnc(Nc3cnn(C)c3)nc2c1-c1ccccc1OC(C)C [Compound 29, 1-Methyl-N-{6-methyl-7-[2-(isopropoxy)phenyl]thieno[3,2-d]pyrimidinyl-2-yl]-1H-pyrazol-4-amine]
19 | 0.79 nM | 0.42 nM | 6.6 nM | Cc1sc2cnc(Nc3cnn(C4CCNCC4)c3)nc2c1-c1cccc2c1OCC2 [Compound 32, N-[7-(2,3-dihyro-1-benzofuran-7-yl)-6-methylthieno[3,2-d]pyrimidinyl-2-yl]-1-(piperidinyl-4-yl)-1H-pyrazol-4-amine]
20 | 0.7 nM | 0.84 nM | 3.8 nM | COc1ccccc1-c1c(C)sc2cnc(Nc3cnn(C4CCNCC4)c3)nc12 [Compound 35, N-[7-(2-methoxyphenyl)-6-methylthieno[3,2-d]pyrimidinyl-2-yl]-1-(piperidinyl-4-yl)-1H-pyrazol-4-amine]
21 | 0.51 nM | 1.3 nM | 4.2 nM | COc1cc(S(C)(=O)=O)ccc1-c1c(C)sc2cnc(Nc3cnn(C4CCNCC4)c3)nc12 [Compound 48, N-[7-(4-methylsulfonyl-2-methoxyphenyl)-6-methylthieno[3,2-d]pyrimidin-2-yl]-1-(4-piperidin)-1H-pyrazol-4-amine]
22 | 0.37 nM | 0.64 nM | 1.1 nM | COc1cc(OCC(=O)N2CCC2)ccc1-c1c(C)sc2cnc(Nc3cnn(C)c3)nc12 [Compound 23]
23 | 0.31 nM | 0.39 nM | 1.3 nM | COc1ccccc1-c1c(C)sc2cnc(Nc3cnn(CCO)c3)nc12 [Compound 21, 2-(4-{[7-(2-methoxyphenyl)-6-methylthieno[3,2-d]pyrimidinyl-2-yl]amino}-1H-pyrazol-1-yl)-1-ethanol]

Source: patent US10494378B2, “Fused ring pyrimidine compound, intermediate, and preparation method, composition and use thereof” (GUANGZHOU MAXINOVEL PHARMACEUTICALS CO., LTD., priority 2015, dated 2019)
